Measured values reported in US6284769A, “Nonpeptide kappa opioid receptor antagonists” (The Board of Trustees of the University of Illinois, priority 1999, dated 2001).
Like-named read-outs stand apart in the source and are kept apart here.

What was measured:
μ opioid receptor [1] = biological target: T1, μ opioid receptor (Homo sapiens, UniProt P35372); assay: Receptor binding, [3H]DAMGO, membranes of transfected CHO cells
T1 construct: expressed in transfected cells; host or cells: Chinese hamster ovary (CHO) cells, membranes
T1 sequence (P35372 whole entry): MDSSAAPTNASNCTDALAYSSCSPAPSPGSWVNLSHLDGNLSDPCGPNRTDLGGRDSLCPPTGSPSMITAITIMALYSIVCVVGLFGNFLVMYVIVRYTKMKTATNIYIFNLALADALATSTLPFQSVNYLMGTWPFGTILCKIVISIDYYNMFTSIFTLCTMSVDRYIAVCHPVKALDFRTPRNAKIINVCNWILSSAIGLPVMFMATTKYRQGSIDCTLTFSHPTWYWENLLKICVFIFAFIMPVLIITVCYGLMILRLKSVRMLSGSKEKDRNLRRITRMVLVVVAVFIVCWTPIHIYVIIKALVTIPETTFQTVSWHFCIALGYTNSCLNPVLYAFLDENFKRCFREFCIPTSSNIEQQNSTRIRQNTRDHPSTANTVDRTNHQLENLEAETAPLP
Procedure: (§1) Opioid receptor activity studies were carried out by the method of the Opiate Treatment Discovery Program of the National Institutes of Health. Receptor binding studies were conducted on Chinese hamster ovary (CHO) cells which had been transfected with human DNA encoding for the μ, δ, and κ opiate receptors, respectively.
(§2) The cell line expressing the μ opioid receptor is maintained in Ham's F-12 medium supplemented with 10% fetal bovine serum and 400 μg/ml GENETICIN (G418 sulfate). The cell line expressing the δ opioid receptor is maintained in Ham's F-12 medium supplemented with 10% fetal bovine serum and 500 μg/ml hygromycin B. The cell line expressing the κ opioid receptor is maintained in Dulbecco's minimal essential medium (DMEM) supplemented with 10% fetal bovine serum, 400 μg/ml GENETICIN (G418 sulfate), and 0.1% penicillin/streptomycin. All cell lines are grown to full confluency, then harvested for membrane preparation. The membrane used for functional assays is prepared in buffer A (20 mM HEPES, 10 mM MgCl2, and 100 mM NaCl at pH 7.4) and the membrane for binding assays is prepared in 50 mM Tris buffer, pH 7.7. Cells are harvested by scraping the plates with a rubber policeman and then centrifuged at 500 times gravity for 10 minutes. The cell pellet is suspended in buffer A or Tris buffer, homogenized in a Polytron Homogenizer, and centrifuged at 20,000 times gravity for 20 minutes. The cell pellet is washed in buffer A or Tris, centrifuged at 20,000 times gravity for another 20 minutes, and, finally, suspended in a small amount of buffer to determine protein content. Membrane is aliquoted in small vials at a concentration of 6 mg/ml per vial, stored at -70° C., and used as needed.
Binding assays were conducted using [^3 H]DAMGO, [^3 H]Cl-DPDPE and [^3 H]U69,593 as labelling ligands specific for μ, δ and κ opioid receptors, respectively. DAMGO is Tyr-D-Ala-Gly-NMePhe-[…]. The structural formulae for U69,593 and Cl-DPDPE are [drawing 10] […]
(§3) Samples were filtered over glass fiber filters and counted as described for the binding assays.

δ opioid receptor [2] = biological target: T2, δ opioid receptor (Homo sapiens, UniProt P41143); assay: [35S]GTPγS agonist/antagonist assay, δ-CHO membrane; format: biochemical
T2 construct: expressed in transfected cells; host or cells: Chinese hamster ovary (CHO) cells, membranes
T2 sequence (P41143 whole entry): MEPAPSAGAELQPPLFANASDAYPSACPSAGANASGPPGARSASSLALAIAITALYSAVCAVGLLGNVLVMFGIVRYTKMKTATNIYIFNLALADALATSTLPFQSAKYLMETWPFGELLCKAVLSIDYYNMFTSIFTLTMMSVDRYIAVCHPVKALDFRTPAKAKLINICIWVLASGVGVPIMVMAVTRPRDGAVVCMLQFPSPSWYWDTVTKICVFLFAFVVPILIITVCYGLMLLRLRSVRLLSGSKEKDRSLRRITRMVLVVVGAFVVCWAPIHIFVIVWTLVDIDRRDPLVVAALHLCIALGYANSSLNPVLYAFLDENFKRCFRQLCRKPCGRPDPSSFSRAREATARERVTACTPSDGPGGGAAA
Procedure: as §1, §2, §3

δ receptor of the T-cell = assay: Stimulatory activity at the δ receptor of the T-cell of the immune system; format: cell-based; conditions: result in words
μ opioid receptor [3] = biological target: T1, μ opioid receptor; assay: [35S]GTPγS agonist/antagonist assay, μ-CHO membrane; format: biochemical
Procedure: as §1
as §2, with “The cell pellet is suspended in buffer A or Tris buffer, homogenized in a Polytron Homogenizer, and centrifuged at 20,000 times gravity for 20 minutes. The cell pellet is washed in buffer A or Tris, centrifuged at 20,000 times gravity for another 20 minutes, and, finally, suspended in a small amount of buffer to determine protein content. Membrane is aliquoted in small vials at a concentration of 6 mg/ml per vial, stored at -70° C., and used as needed.” left out
(§4) Analysis of the data for IC50 values and Hill coefficients was performed using the program PRISM. Opioid receptor binding constants, Ki, were calculated using the Cheng-Prusoff transformation, Ki=IC50 /(1+L/Kd), where L is radioligand concentration and Kd is the binding affinity of the radioligand, as determined previously by saturation analysis. […] Samples were filtered over glass fiber filters and counted as described for the binding assays. […]
(§5) Agonist activity at μ, δ and κ receptors is reported as % stimulation relative to the respective agonists DAMGO, Cl-DPDPE, and U69,593. […] A full Schild analysis was conducted, utilizing a full agonist dose response curve in the presence of at least three concentrations of the antagonist. pA2 values and Schild slopes were determined using a statistical program designed for these experiments.

[4] = In vivo analgesic testing on rats; conditions: result in words
κ opioid receptor [5] = biological target: T3, κ opioid receptor (Homo sapiens, UniProt P41145); assay: Receptor binding, [3H]U69,593, membranes of transfected CHO cells; conditions: CHO cell membranes, radioligand [3H]U69,593, 1 hour at 25° C., SEM in brackets
T3 construct: expressed in transfected cells; host or cells: Chinese hamster ovary (CHO) cells, membranes
T3 sequence (P41145 whole entry): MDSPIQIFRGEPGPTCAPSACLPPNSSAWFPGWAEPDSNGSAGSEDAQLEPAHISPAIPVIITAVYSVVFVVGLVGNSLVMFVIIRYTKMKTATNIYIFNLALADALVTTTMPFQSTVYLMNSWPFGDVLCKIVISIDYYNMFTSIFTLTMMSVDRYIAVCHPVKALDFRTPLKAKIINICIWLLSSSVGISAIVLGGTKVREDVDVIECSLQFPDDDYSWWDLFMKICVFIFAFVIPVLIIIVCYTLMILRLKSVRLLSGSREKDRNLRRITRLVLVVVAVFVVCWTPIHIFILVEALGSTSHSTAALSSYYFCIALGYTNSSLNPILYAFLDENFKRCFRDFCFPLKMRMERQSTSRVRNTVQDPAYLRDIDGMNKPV
Procedure: as §1
The cell line expressing the μ opioid receptor is maintained in Ham's F-12 medium supplemented with 10% fetal bovine serum and 400 μg/ml GENETICIN (G418 sulfate). […]
Cell membranes were incubated with the appropriate radioligand and unlabeled compounds of Example 1 in a total volume of 200 μl in 96-well plates, usually for 1 hour at 25° C. […] Filters were dried overnight before radioactivity levels were determined. Nonspecific binding was determined by using 1.0 μM of the unlabeled counterpart of each radioligand.
as §4

κ opioid receptor [6] = biological target: T3, κ opioid receptor; assay: [35S]GTPγS agonist/antagonist assay with Schild analysis, κ-CHO membrane; format: biochemical
Procedure: as §1, §2
as §4, with “analysis. See Y. C. Cheng et al., Biochem. Pharmacol., 22, p. 3099-3102 (1973).” for “analysis.”
as §5

δ opioid receptor [7] = biological target: T2, δ opioid receptor; assay: Receptor binding, [3H]Cl-DPDPE, membranes of transfected CHO cells; conditions: CHO cell membranes, radioligand [3H]Cl-DPDPE, 1 hour at 25° C., SEM in brackets
Procedure: as §1
as §2, with “The cell pellet is suspended in buffer A or Tris buffer, homogenized in a Polytron Homogenizer, and centrifuged at 20,000 times gravity for 20 minutes. The cell pellet is washed in buffer A or Tris, centrifuged at 20,000 times gravity for another 20 minutes, and, finally, suspended in a small amount of buffer to determine protein content. Membrane is aliquoted in small vials at a concentration of 6 mg/ml per vial, stored at -70° C., and used as needed.” left out
as §3

[8] = [35S]GTPγS, 60 min at 25° C., SEM in brackets

CN1CC[C@]23c4c5ccc(O)c4O[C@H]2c2n[nH]cc2C[C@@]3(O)[C@H]1C5 [Example 1, 17-Methyl-6,7-dehydro-3,14-hydroxy-4,5α-epoxy-6,7:5',4'(6,7: 3',4')pyrazolomorphin (tautomers)]
Ki (μ opioid receptor [1]; CHO cell membranes, human μ receptor, radioligand [3H]DAMGO, 1 hour at 25° C., SEM in brackets): 3.75 nM | Selectivity: affinity for μ over δ (μ opioid receptor [1]; ratio of binding affinities, μ versus δ): about 7 times | Selectivity: affinity for μ over κ (μ opioid receptor [1]; ratio of binding affinities, μ versus κ): about 7 times | Emax (δ opioid receptor [2]; 1 h, [35S]GTPγS, relative to full agonist Cl-DPDPE, read-out: % Stimulation δ-CHO membrane): 75.2% | EC50 (δ opioid receptor [2]; [8]): 25 nM | Agonist/antagonist property at the δ receptor (δ opioid receptor [2]; result in words): agonist | Stimulatory activity at the δ receptor of the T-cell (δ receptor of the T-cell): weak stimulatory activity | Emax (μ opioid receptor [3]; 1 h, [35S]GTPγS, relative to full agonist DAMGO, read-out: % Stimulation μ-CHO membrane): 80.3% | EC50 (μ opioid receptor [3]; [8]): 19.3 nM | Agonist/antagonist property at the μ receptor (μ opioid receptor [3]; result in words): agonist | Analgesic activity [4]: potent analgesic activity | Duration of analgesic activity [4]: long duration of activity | Ki (κ opioid receptor [5]): 12.3 nM | Kb (κ opioid receptor [6]; [35S]GTPγS, antagonism, agonist U69,593, SEM in brackets, read-out: Ke (SEM) κ-CHO membrane): 59.3 nM | Schild slope (κ opioid receptor [6]; full Schild analysis, κ-CHO membrane): -0.92±0.32 | Kb (κ opioid receptor [6]; full Schild analysis, κ-CHO membrane, read-out: pA2 value (converted)): 51.3 nM | Agonist/antagonist property at the κ receptor (κ opioid receptor [6]; result in words): antagonist | Ki (δ opioid receptor [7]): 19.1 nM
